In data set [1] the test system is NF-κB luciferase reporter in Ad5-wt-hERα infected HAECT-1 cells. The data set can be described thus: ER/NF-κB-luc: IL-1β induced NF-κB luciferase reporter in Ad5-wt-ER infected HAECT-1 cells. The data set is classed as cell-based. As to conditions: Homo sapiens; for IC50: HAECT1, Ad5-wt-ER infected HAECT-1 cells, IL-1β, read-out: ER/NF-KB-luc IC50; for Emax: HAECT1, efficacy relative to the maximal inhibition observed with E2, read-out: ER/NF-KB-luc % Eff*. The method, then:
(§1) T-175 flasks of 100% confluent HAECT-1 cells (immortalized human aortic endothelial cells) were washed with 8 ml of HBSS (HEPES buffered saline solution) and infected for four hours with 6 ml of a 1:10 dilution of Ad5-wt-hERα virus (an adenovirus transfection vector that mediates CMV promoter driven expression of human ERα) in phenol red free Endothelial Cell Basal medium (Clonetics, San Diego Calif., Catalog # CC-3129) containing 0.25% bovine serum albumin (EBM-BSA). After four hours, cells were washed with EBM-BSA and incubated overnight in the same medium. Following overnight incubation, cells were washed with EBM-BSA and infected for 2 hours with 6 ml of a 1:10 dilution of Ad5-3×(NFκB).Luc virus (Adenovirus luciferase expression vector driven by 3 repeats of the MHC NFκb site 5′ to the thymidine kinase promoter) in EBM-BSA. After two hours, cells were washed and incubated at 34° C. for 1 hour. Cells were then washed, trypsinized, counted and resuspended in 95% FBS/5% dimethylsulfoxide at a concentration of 4×10^6 cells/ml, frozen as 1 or 5 ml aliquots in cryo-vials and stored at −150° C. Control (no ER infection) cells were processed as above without Ad5-wt-hERα virus infection.
(§2) ERα infected HAECT-1 cells or control cells were thawed, diluted 42× in warm EBM-BSA, plated into 96-well plates at 0.1 ml/well and incubated for 4 h at 34° C. Test compounds were added to the cells as 2× stocks in EBM-BSA containing 2 ng/ml IL-1β (R&D Systems) and plates were returned to the incubator (34° C.). After 15-20 h, 100 μl aliquots of media were removed from the cells and assayed for IL-6 content using a BioSource human IL-6 ELISA Kit. Cells were subsequently washed with 300 μl of Dulbecco's phosphate buffered saline and lysed in 50 μl of Cell Culture Lysis Reagent (Promega). Luciferase was determined on a Wallac Victor^2 Luminometer (Gaithersburg, Md.) using 10 μl of lysate and mixing with 100 μl of Promega Luciferase Assay reagent. Creatine kinase was determined from the rate of increase in A340 following addition of 100 μl of CK assay reagent (Sigma, cat. No 47-10) to the remainder of the cell lysate.
(§3) For IC50 and EC50 calculations, mean IL-6, luciferase or CK values versus log10 of the compound concentration were fitted to a four parameter logistic equation. The IC50/EC50 value, ‘Hill slope’, upper and lower limits of the curve were iteratively estimated.

For data set [2], the system named is creatine kinase expression in Ad5-wt-hERα infected HAECT-1 cells. The data set can be described thus: ER/CK: creatine kinase expression in Ad5-wt-ER infected HAECT-1 cells. The settings on record: for EC50: Homo sapiens, HAECT1, read-out: ER/CK EC50 (nM); for ER/CK % Eff*: efficacy relative to the maximal stimulation observed with E2; for ER/CK EC50 (nM): Ad5-wt-ER infected HAECT-1 cells. It counts as cell-based, human. The protocol: as §1, §2, §3

The structures appear in SMILES notation.

The record followed here is patent publication US7598286B2, “[(1H-indazol-3-yl)methyl]phenols and (hydroxyphenyl)(1H-indazol-3-yl)methanones” (Wyeth, priority 2004, dated 2009).

Compound `C/C=C/Cn1nc(C(=O)c2cccc(O)c2)c2ccccc21` showed a melting point of 75 to 78 °C.

In turn, `CC(C)=CCn1nc(C(=O)c2cccc(O)c2)c2ccccc21` had a melting point of 92 to 94 °C.

With `Oc1cccc(Cc2n[nH]c3ccccc23)c1` [Example 1, 3-[(1H-indazol-3-yl)methyl]phenol], the melting point is 170 to 172 °C.

For `CCCn1nc(C(=O)c2cccc(O)c2)c2ccccc21` [Example 3, (3-hydroxyphenyl)(1-propyl-1H-indazol-3-yl)methanone], in data set [1], the IC50 turned out to be 722 nM and the Emax worked out at 70%. In addition, in data set [2], the EC50 is 2640 nM and the “ER/CK % Eff*” value was determined as 35%.

For `CC(C)n1nc(C(=O)c2cccc(O)c2)c2ccccc21` [Example 5, (3-hydroxyphenyl)(1-isopropyl-1H-indazol-3-yl)methanone], in data set [1], the IC50 was 1070 nM and the Emax came out at 83%. In data set [2], the EC50 came out at 1790 nM and the “ER/CK % Eff*” value turned out to be 55%.

With `Oc1cccc(Cc2nn(C3CCCC3)c3ccccc23)c1` [Example 6, 3-[(1-cyclopentyl-1H-indazol-3-yl)methyl]phenol], in data set [1], the IC50 was 570 nM and the Emax is 54%. Also, the “ER/CK EC50 (nM)” value in data set [2] is reported as “ia”.

With `O=C(c1ccc(O)cc1)c1n[nH]c2c(C(F)(F)F)cccc12` [Example 7, (4-hydroxyphenyl)[7-(trifluoromethyl)-1H-indazol-3-yl]methanone], in data set [1], the IC50 came to 1000 nM and the Emax is 43%. The “ER/CK EC50 (nM)” value in data set [2] was “ia”.

As for `O=C(c1ccc(O)cc1)c1nn(C2CCCC2)c2c(C(F)(F)F)cccc12` [Example 8, [1-cyclopentyl-7-(trifluoromethyl)-1H-indazol-3-yl](4-hydroxyphenyl)methanone], the melting point lay in the range of 225 to 226 °C. Besides, in data set [1], the IC50 came to 94 nM and the Emax came to 87%. The “ER/CK EC50 (nM)” value in data set [2] is “ia”.

Take `CC(C)n1nc(C(=O)c2ccc(O)cc2)c2cccc(C(F)(F)F)c21` [Example 9, (4-hydroxyphenyl)[1-isopropyl-7-(trifluoromethyl)-1H-indazol-3-yl]methanone]: in data set [1], the IC50 is 107 nM and the Emax stood at 80%. The “ER/CK EC50 (nM)” value in data set [2] was “ia”.

As to `O=C(c1cccc(O)c1)c1n[nH]c2c(C(F)(F)F)cccc12` [Example 10, (3-hydroxyphenyl)[7-(trifluoromethyl)-1H-indazol-3-yl]methanone], in data set [1], the IC50 was 593 nM and the Emax turned out to be 88%. Besides, in data set [2], the “ER/CK EC50 (nM)” value is listed as “ia”.

Turning to `CCCn1nc(C(=O)c2cccc(O)c2)c2cccc(C(F)(F)F)c21` [Example 11, (3-hydroxyphenyl)[1-propyl-7-(trifluoromethyl)-1H-indazol-3-yl]methanone], the melting point was 118 °C. Further, in data set [1], the IC50 was 198 nM and the Emax stood at 82%. The “ER/CK EC50 (nM)” value in data set [2] was “ia”.

For `C=CCn1nc(C(=O)c2cccc(O)c2)c2ccccc21` [Example 18, (1-allyl-1H-indazol-3-yl)(3-hydroxyphenyl)methanone], in data set [1], the IC50 turned out to be 1240 nM and the Emax came to 92%. For the same compound, the “ER/CK EC50 (nM)” value in data set [2] is given as “ia”.

Consider `O=C(c1cccc(O)c1)c1nn(Cc2ccccc2)c2ccccc12` [Example 19, (1-benzyl-1H-indazol-3-yl)(3-hydroxyphenyl)methanone], for which, in data set [1], the IC50 came to 409 nM and the Emax was 92%. In addition, the “ER/CK EC50 (nM)” value in data set [2] is given as “ia”.

Regarding `COc1cccc(-n2nc(C(=O)c3cccc(O)c3)c3ccccc32)c1` [Example 22, (3-hydroxyphenyl)[1-(3-methoxyphenyl)-1H-indazol-3-yl]methanone], in data set [1], the IC50 was found to be 475 nM and the Emax worked out at 75%. The “ER/CK EC50 (nM)” value in data set [2] was “ia”.

`O=C(c1cccc(O)c1)c1c2ccccc2nn1-c1ccc(Br)cc1` [Example 23, [2-(4-bromophenyl)-2H-indazol-3-yl](3-hydroxyphenyl)methanone]: in data set [1], the IC50 came out at 82 nM and the Emax was found to be 79%. Also, the “ER/CK EC50 (nM)” value in data set [2] is reported as “ia”.
